{"source": "patent US20260285850A1", "about": "“SUBSTITUTED OXAZOLIDINONES AND IMIDAZOLINONES AS HERBICIDES” (FMC CORPORATION, priority 2023, published 2026)", "assay_type_in_all_cases": "in vivo", "key": {"[1]": {"system": "sedge, umbrella (small-flower umbrella sedge, Cyperus difformis)", "assay": "Test B flooded paddy test, visual plant response rating 0-100", "details": "250 g ai/ha, Flood, applied to paddy water, evaluated after 13 days", "procedure": "(§1) Plant species in the flooded paddy test selected from barnyardgrass (Echinochloa crusgalli), ducksalad (Heteranthera limosa), rice (Oryza sativa), and sedge, umbrella (small-flower umbrella sedge, Cyperus difformis) were grown to the 2-leaf stage for testing. At time of treatment, test pots were flooded to 3 cm above the soil surface, treated by application of test compounds directly to the paddy water, and then maintained at that water depth for the duration of the test. Treated plants and controls were maintained in a greenhouse for 13 days, after which time all species were compared to controls and visually evaluated. […] A dash (-) response means no test result."}, "[2]": {"system": "barnyardgrass (Echinochloa crusgalli)", "assay": "Test B flooded paddy test, visual plant response rating 0-100", "details": "250 g ai/ha, Flood, applied to paddy water, evaluated after 13 days", "procedure": "as §1"}, "[3]": {"system": "ducksalad (Heteranthera limosa)", "assay": "Test B flooded paddy test, visual plant response rating 0-100", "details": "250 g ai/ha, Flood, applied to paddy water, evaluated after 13 days", "procedure": "as §1"}, "rice (Oryza sativa)": {"system": "rice (Oryza sativa)", "assay": "Test B flooded paddy test, visual plant response rating 0-100", "details": "250 g ai/ha, Flood, applied to paddy water, evaluated after 13 days", "procedure": "as §1"}, "[4]": {"system": "ragweed (common ragweed, Ambrosia artemisiifolia)", "assay": "Test A preemergence soil spray, visual injury rating 0-100", "details": "10 days, 0 = no effect, 100 = complete control", "excerpt": "(§2) Seeds of plant species selected from barnyardgrass (Echinochloa crus-galli), blackgrass (Alopecurus myosuroides), corn (Zea mays), foxtail, giant (giant foxtail, Setaria faberi), green foxtail (Setaria viridis), goosegrass (Eleusine indica), kochia (Bassia scoparia), oat, wild (wild oat, Avena fatua), palmer (palmer amaranth, palmer pigweed, Amaranthus palmeri), ragweed (common ragweed, Ambrosia artemisiifolia), ryegrass, Italian (italian ryegrass, Lolium multiflorum), soybean (Glycine max) and wheat (Triticum aestivum) were planted into a blend of loam soil and sand and treated preemergence with a directed soil spray using test chemicals formulated in a non-phytotoxic solvent mixture which included a surfactant.\n(§3) At the same time, plants selected from these crops and weed species and also galium (catchweed bedstraw, Galium aparine) and horseweed (Erigeron canadensis) were planted in pots containing the same blend of loam soil and sand and treated with postemergence applications of test chemicals formulated in the same manner. Plants ranged in height from 2 to 10 cm and were in the one- to two-leaf stage for the postemergence treatment. Treated plants and untreated controls were maintained in a greenhouse for 10 days, after which time all treated plants were compared to untreated controls and visually evaluated for injury. Plant response ratings, summarized in Table A, are based on a 0 to 100 scale where 0 is no effect and 100 is complete control. A dash (-) response means no test result."}, "[5]": {"system": "blackgrass (Alopecurus myosuroides)", "assay": "Test A preemergence soil spray, visual injury rating 0-100", "details": "10 days, 0 = no effect, 100 = complete control", "excerpt": "as §2, §3"}, "[6]": {"system": "oat, wild (wild oat, Avena fatua)", "assay": "Test A preemergence soil spray, visual injury rating 0-100", "details": "10 days, 0 = no effect, 100 = complete control", "excerpt": "as §2, §3"}, "soybean (Glycine max) [7]": {"system": "soybean (Glycine max)", "assay": "Test A preemergence soil spray, visual injury rating 0-100", "details": "10 days, 0 = no effect, 100 = complete control", "excerpt": "as §2, §3"}, "kochia (Bassia scoparia) [8]": {"system": "kochia (Bassia scoparia)", "assay": "Test A preemergence soil spray, visual injury rating 0-100", "details": "10 days, 0 = no effect, 100 = complete control", "excerpt": "as §2, §3"}, "[9]": {"system": "wheat (Triticum aestivum)", "assay": "Test A preemergence soil spray, visual injury rating 0-100", "details": "10 days, 0 = no effect, 100 = complete control", "excerpt": "as §2, §3"}, "corn (Zea mays) [10]": {"system": "corn (Zea mays)", "assay": "Test A preemergence soil spray, visual injury rating 0-100", "details": "10 days, 0 = no effect, 100 = complete control", "excerpt": "as §2, §3"}, "[11]": {"system": "palmer (palmer amaranth, palmer pigweed, Amaranthus palmeri)", "assay": "Test A preemergence soil spray, visual injury rating 0-100", "details": "10 days, 0 = no effect, 100 = complete control", "excerpt": "as §2, §3"}, "[12]": {"system": "barnyardgrass (Echinochloa crus-galli)", "assay": "Test A preemergence soil spray, visual injury rating 0-100", "details": "10 days, 0 = no effect, 100 = complete control", "excerpt": "as §2, §3"}, "[13]": {"system": "green foxtail (Setaria viridis)", "assay": "Test A preemergence soil spray, visual injury rating 0-100", "details": "10 days, 0 = no effect, 100 = complete control", "excerpt": "as §2, §3"}, "[14]": {"system": "ryegrass, Italian (italian ryegrass, Lolium multiflorum)", "assay": "Test A preemergence soil spray, visual injury rating 0-100", "details": "10 days, 0 = no effect, 100 = complete control", "excerpt": "as §2, §3"}, "[15]": {"system": "ragweed (common ragweed, Ambrosia artemisiifolia)", "assay": "Test A postemergence application, visual injury rating 0-100", "details": "10 days", "excerpt": "as §2, §3"}, "[16]": {"system": "blackgrass (Alopecurus myosuroides)", "assay": "Test A postemergence application, visual injury rating 0-100", "details": "10 days", "excerpt": "as §2, §3"}, "[17]": {"system": "oat, wild (wild oat, Avena fatua)", "assay": "Test A postemergence application, visual injury rating 0-100", "details": "10 days", "excerpt": "as §2, §3"}, "soybean (Glycine max) [18]": {"system": "soybean (Glycine max)", "assay": "Test A postemergence application, visual injury rating 0-100", "details": "10 days", "excerpt": "as §2, §3"}, "kochia (Bassia scoparia) [19]": {"system": "kochia (Bassia scoparia)", "assay": "Test A postemergence application, visual injury rating 0-100", "details": "10 days", "excerpt": "as §2, §3"}, "[20]": {"system": "wheat (Triticum aestivum)", "assay": "Test A postemergence application, visual injury rating 0-100", "details": "10 days", "excerpt": "as §2, §3"}, "[21]": {"system": "horseweed (Erigeron canadensis)", "assay": "Test A postemergence application, visual injury rating 0-100", "details": "10 days", "excerpt": "as §2, §3"}, "corn (Zea mays) [22]": {"system": "corn (Zea mays)", "assay": "Test A postemergence application, visual injury rating 0-100", "details": "10 days", "excerpt": "as §2, §3"}, "[23]": {"system": "palmer (palmer amaranth, palmer pigweed, Amaranthus palmeri)", "assay": "Test A postemergence application, visual injury rating 0-100", "details": "10 days", "excerpt": "as §2, §3"}, "[24]": {"system": "barnyardgrass (Echinochloa crus-galli)", "assay": "Test A postemergence application, visual injury rating 0-100", "details": "10 days", "excerpt": "as §2, §3"}, "[25]": {"system": "green foxtail (Setaria viridis)", "assay": "Test A postemergence application, visual injury rating 0-100", "details": "10 days", "excerpt": "as §2, §3"}, "[26]": {"system": "ryegrass, Italian (italian ryegrass, Lolium multiflorum)", "assay": "Test A postemergence application, visual injury rating 0-100", "details": "10 days", "excerpt": "as §2, §3"}, "[27]": {"details": "31 g ai/ha, postemergence, 0 = no effect, 100 = complete control"}, "[28]": {"details": "Postemergence, 125 g ai/ha, 0 is no effect, 100 is complete control"}}}
{"smiles": "CCOC(=O)C1CCC(NC(=O)C2(C)CN(c3cc(F)cc(F)c3)C(=O)O2)C1", "note": "(centres unmarked) [Compound 11]", "values": [{"measurement": "Plant response rating, Sedge, Umbrella (0 to 100 scale, 0 is no effect and 100 is complete control)", "setting": "[1]", "value": 60}, {"measurement": "Plant response rating, Barnyardgrass (0 to 100 scale, 0 is no effect and 100 is complete control)", "setting": "[2]", "value": 50}, {"measurement": "Plant response rating, Ducksalad (0 to 100 scale, 0 is no effect and 100 is complete control)", "setting": "[3]", "value": 65}, {"measurement": "Plant response rating, Rice (0 to 100 scale, 0 is no effect and 100 is complete control)", "setting": "rice (Oryza sativa)", "value": 25}, {"measurement": "Ragweed plant response rating (0-100)", "setting": "[4]; 31 g ai/ha", "value": 0}, {"measurement": "Ragweed plant response rating (0 to 100 scale)", "setting": "[4]; 125 g ai/ha", "value": 70}, {"measurement": "Blackgrass plant response rating (0-100)", "setting": "[5]; 31 g ai/ha", "value": 20}, {"measurement": "Blackgrass plant response rating (0 to 100 scale)", "setting": "[5]; 125 g ai/ha", "value": 90}, {"measurement": "Oat, Wild plant response rating (0-100)", "setting": "[6]; 31 g ai/ha", "value": 20}, {"measurement": "Oat, Wild plant response rating (0 to 100 scale)", "setting": "[6]; 125 g ai/ha", "value": 80}, {"measurement": "Soybean plant response rating (0-100)", "setting": "soybean (Glycine max) [7]; 31 g ai/ha", "value": 0}, {"measurement": "Soybean plant response rating (0 to 100 scale)", "setting": "soybean (Glycine max) [7]; 125 g ai/ha", "value": 20}, {"measurement": "Kochia plant response rating (0-100)", "setting": "kochia (Bassia scoparia) [8]; 31 g ai/ha", "value": 0}, {"measurement": "Kochia plant response rating (0 to 100 scale)", "setting": "kochia (Bassia scoparia) [8]; 125 g ai/ha", "value": 50}, {"measurement": "Wheat plant response rating (0-100)", "setting": "[9]; 31 g ai/ha", "value": 90}, {"measurement": "Wheat plant response rating (0 to 100 scale)", "setting": "[9]; 125 g ai/ha", "value": 100}, {"measurement": "Corn plant response rating (0-100)", "setting": "corn (Zea mays) [10]; 31 g ai/ha", "value": 0}, {"measurement": "Corn plant response rating (0 to 100 scale)", "setting": "corn (Zea mays) [10]; 125 g ai/ha", "value": 50}, {"measurement": "Amaranth, Palmer plant response rating (0-100)", "setting": "[11]; 31 g ai/ha", "value": 0}, {"measurement": "Amaranth, Palmer plant response rating (0 to 100 scale)", "setting": "[11]; 125 g ai/ha", "value": 30}, {"measurement": "Barnyardgrass plant response rating (0-100)", "setting": "[12]; 31 g ai/ha", "value": 0}, {"measurement": "Barnyardgrass plant response rating (0 to 100 scale)", "setting": "[12]; 125 g ai/ha", "value": 100}, {"measurement": "Foxtail, Green plant response rating (0-100)", "setting": "[13]; 31 g ai/ha", "value": 0}, {"measurement": "Foxtail, Green plant response rating (0 to 100 scale)", "setting": "[13]; 125 g ai/ha", "value": 100}, {"measurement": "Ryegrass, Italian plant response rating (0-100)", "setting": "[14]; 31 g ai/ha", "value": 40}, {"measurement": "Ryegrass, Italian plant response rating (0 to 100 scale)", "setting": "[14]; 125 g ai/ha", "value": 90}, {"measurement": "Ragweed plant response rating (0-100)", "setting": "[15]; [27]", "value": 0}, {"measurement": "Ragweed plant response rating (0 to 100 scale)", "setting": "[15]; [28]", "value": 0}, {"measurement": "Blackgrass plant response rating (0-100)", "setting": "[16]; [27]", "value": 30}, {"measurement": "Blackgrass plant response rating (0 to 100 scale)", "setting": "[16]; [28]", "value": 90}, {"measurement": "Oat, Wild plant response rating (0-100)", "setting": "[17]; [27]", "value": 80}, {"measurement": "Oat, Wild plant response rating (0 to 100 scale)", "setting": "[17]; [28]", "value": 90}, {"measurement": "Soybean plant response rating (0-100)", "setting": "soybean (Glycine max) [18]; [27]", "value": 50}, {"measurement": "Soybean plant response rating (0 to 100 scale)", "setting": "soybean (Glycine max) [18]; [28]", "value": 60}, {"measurement": "Kochia plant response rating (0-100)", "setting": "kochia (Bassia scoparia) [19]; [27]", "value": 20}, {"measurement": "Kochia plant response rating (0 to 100 scale)", "setting": "kochia (Bassia scoparia) [19]; [28]", "value": 80}, {"measurement": "Wheat plant response rating (0-100)", "setting": "[20]; [27]", "value": 80}, {"measurement": "Wheat plant response rating (0 to 100 scale)", "setting": "[20]; [28]", "value": 90}, {"measurement": "Horseweed plant response rating (0-100)", "setting": "[21]; [27]", "value": 30}, {"measurement": "Horseweed plant response rating (0 to 100 scale)", "setting": "[21]; [28]", "value": 20}, {"measurement": "Corn plant response rating (0-100)", "setting": "corn (Zea mays) [22]; [27]", "value": 10}, {"measurement": "Corn plant response rating (0 to 100 scale)", "setting": "corn (Zea mays) [22]; [28]", "value": 80}, {"measurement": "Amaranth, Palmer plant response rating (0-100)", "setting": "[23]; [27]", "value": 30}, {"measurement": "Amaranth, Palmer / Pigweed, Palmer plant response rating (0 to 100 scale)", "setting": "[23]; [28]", "value": 60}, {"measurement": "Barnyardgrass plant response rating (0-100)", "setting": "[24]; [27]", "value": 60}, {"measurement": "Barnyardgrass plant response rating (0 to 100 scale)", "setting": "[24]; [28]", "value": 100}, {"measurement": "Foxtail, Green plant response rating (0-100)", "setting": "[25]; [27]", "value": 30}, {"measurement": "Foxtail, Green plant response rating (0 to 100 scale)", "setting": "[25]; [28]", "value": 90}, {"measurement": "Ryegrass, Italian plant response rating (0-100)", "setting": "[26]; [27]", "value": 50}, {"measurement": "Ryegrass, Italian plant response rating (0 to 100 scale)", "setting": "[26]; [28]", "value": 70}]}
